Where two headings read alike, the source gives them in different places.
Legend:
Type in all cases: cell-based, human
H2009 = assay: Cell viability dose-response, H2009; conditions: Homo sapiens; for IC50: NCI-H2009; for AC50: NCI-H2009, Table 8
Procedure: (§1) FIG. 6A. […] Cell viability is plotted vs. compound concentration. Compound was added to cells plated at 15% confluence in 96-well plates in RPMI-1640 media supplemented with 5% Fetal Bovine Serum and 2 mM L-Glutamine. After 4 days of incubation, ATP levels were measured using Cell Titer Glo (Promega). Data are presented as the average of 2 replicates ±SEM.
(§2) Selectivity may be measured by the half maximal inhibitory concentration (IC50), which, as used herein, is a measure of the effectiveness of a compound in killing cells. This quantitative measure indicates how much of a particular compound is needed to kill a particular cell population by half (e.g., as indicated by the amount of ATP). […] The IC50 can be determined by constructing a dose-response curve. The lower the IC50, the higher the potency, and the greater the difference between IC50 values for different cell lines (e.g., sensitive lines vs. insensitive lines, and sensitive lines vs. normal lines) the greater the selectivity. […]
(§3) With this information, we synthesized and tested a series of small molecules derived in conception from the oxalamide and chromone scaffold including N-acyl ureas, as shown in Tables 6-8. Each compound was tested in a 12-point dose-response study starting at 50 micromolar and decreasing in 3-fold increments to sub-nanomolar concentrations, in duplicate. Additionally, one or more additional cell line was tested in the same way.

H2122 = assay: Cell viability dose-response, H2122; conditions: Homo sapiens; for AC50: NCI-H2122, Table 8, 12-point dose-response starting at 50 micromolar
How it was run: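 Cells plated at 15% confluence in RPMI-1640 with 5% FBS and 2 mM L-glutamine, treated with compound in a 12-point, 3-fold dilution series from 50 micromolar, in duplicate. ATP measured by Cell Titer Glo after 4 days; IC50 taken from the dose-response curve.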

HCC44 = assay: Cell viability dose-response, HCC44; conditions: Homo sapiens; for AC50: HCC44, Table 8, 12-point dose-response starting at 50 micromolar
Procedure: as §1, §2, §3

[1] = 12-point dose-response starting at 50 micromolar, 3-fold increments, in duplicate, read-out: toxicity data, H2009
[2] = NCI-H2122, 12-point dose-response starting at 50 micromolar, 3-fold increments, in duplicate, read-out: toxicity data, H2122
[3] = NCI-H2122, Table 9, competitor, read-out: IC50 to H2122 cells
[4] = HCC44, 12-point dose-response starting at 50 micromolar, 3-fold increments, in duplicate, read-out: toxicity data, HCC44
[5] = 12-point dose-response starting at 50 micromolar
[6] = Tables 3 and 4, read-out: IC50 (uM) vs indicated non-small cell lung cancer cell line H2009
[7] = NCI-H2122, Tables 3 and 4, read-out: IC50 (uM) vs indicated non-small cell lung cancer cell line H2122
[8] = HCC44, Tables 3 and 4, read-out: IC50 (uM) vs indicated non-small cell lung cancer cell line HCC44

COc1ccc(CCNC(=O)NC(=O)c2ccc(C(=O)c3ccc(OC)cc3)cc2)cc1 [SW208220-1-A]
IC50 (H2009; [1]): ≥ 49.5 µM | IC50 (H2122; [2]): ≥ 49.5 µM | IC50 (H2122; [3]): 0.8 µM | IC50 (HCC44; [4]): ≥ 49.5 µM

O=c1c(C(O)c2ccccc2)coc2cc(OCc3cnn(-c4ccccc4)c3)ccc12 (stereo not drawn) [SW208833-1]
AC50 (H2009; [5]): 8.3 µM | AC50 (H2122): 0.216 µM | AC50 (HCC44): 9.86 µM

O=C(Nc1nc(-c2ccccc2)cs1)c1ccc(C(=O)c2ccccc2)cc1 [SW209018]
IC50 (H2009; [6]): 14.8 µM | IC50 (H2122; [7]): 4.73 µM | IC50 (HCC44; [8]): 49.5 µM

COc1ccc(CCNC(=O)NC(=O)c2ccc(C(=O)N3CCN(C)CC3)cc2)cc1 [SW208414-1-A]
IC50 (H2009; [1]): 5.05 µM | IC50 (H2122; [2]): ≥ 49.5 µM | IC50 (HCC44; [4]): ≥ 49.5 µM

COC(=O)c1ccc(C(=O)NC(=O)NCCc2ccc(OC)cc2)cc1 [SW208390-1-A]
IC50 (H2009; [1]): ≥ 49.5 µM | IC50 (H2122; [2]): ≥ 49.5 µM | IC50 (HCC44; [4]): ≥ 49.5 µM

COc1ccc(CCCNC(=O)c2ccc(Cl)cc2)cc1 [SW208462-1-A]
IC50 (H2009; [1]): ≥ 49.5 µM | IC50 (H2122; [2]): ≥ 49.5 µM | IC50 (HCC44; [4]): ≥ 49.5 µM

COc1ccc(CCNC(=O)NC(=O)c2ccc(C(=O)Nc3ccccc3)cc2)cc1 [SW208398-1-A]
IC50 (H2009; [1]): 16.5 µM | IC50 (H2122; [2]): 0.36 µM | IC50 (HCC44; [4]): ≥ 49.5 µM

O=c1c(Oc2cccc(Cl)c2)coc2cc(OCc3cnn(-c4ccccc4)c3)ccc12 [SW 208594-1]
AC50 (H2009; [5]): 16.5 µM | AC50 (H2122): 0.22 µM | AC50 (HCC44): 0.08 µM

COc1ccc(CCNC(=O)NC(=O)c2cccc(-c3ccncc3)c2)cc1 [SW208396-1-A]
IC50 (H2009; [1]): 4.95 µM | IC50 (H2122; [2]): 2.23 µM | IC50 (HCC44; [4]): ≥ 49.5 µM

C#CCOc1ccc(C(=O)c2ccc(NC(=O)C(=O)NC(C)Cc3ccc(OC)cc3)cc2)cc1 (stereo not drawn) [SW208217-1-A]
IC50 (H2009; [1]): 12.3 µM | IC50 (H2122; [2]): ≥ 49.5 µM | IC50 (HCC44; [4]): ≥ 49.5 µM

O=C(Nc1nc2ccc(OCCCCBr)cc2s1)c1ccc(C(=O)c2ccccc2)cc1 [SW 208236]
IC50 (H2009; [6]): 49.5 µM | IC50 (H2122; [7]): ≥ 49.5 µM | IC50 (HCC44; [8]): 49.5 µM

O=c1c(Oc2cccc(F)c2)coc2cc(OCc3cnn(-c4ccccc4)c3)ccc12 [SW208592-1]
AC50 (H2009; [5]): 16.5 µM | AC50 (H2122): 0.15 µM | AC50 (HCC44): 0.08 µM

O=c1c(C2=CCCCC2)coc2cc(OCc3cnn(-c4ccccc4)c3)ccc12 [SW208764-1]
AC50 (H2009; [5]): 49.5 µM | AC50 (H2122): ≥ 49.5 µM | AC50 (HCC44): 49.5 µM

COc1ccc(CCNC(=O)NC(=O)c2ccc(C(=O)N3CCOCC3)cc2)cc1 [SW208408-1-A]
IC50 (H2009; [1]): 46.9 µM | IC50 (H2122; [2]): ≥ 49.5 µM | IC50 (HCC44; [4]): ≥ 49.5 µM

COc1ccc(CCNC(=O)NC(=O)c2ccc(Nc3ccccc3)cc2)cc1 [SW208561-1-A]
IC50 (H2009; [1]): 0.88 µM | IC50 (H2122; [2]): 0.08 µM | IC50 (H2122; [3]): 0.0763 µM | IC50 (HCC44; [4]): 0.03 µM

O=c1c(-c2ccc(F)cc2F)coc2cc(OCc3cnn(-c4ccccc4)c3)ccc12 [SW208760-1]
AC50 (H2009; [5]): 20.7 µM | AC50 (H2122): 0.11 µM | AC50 (HCC44): 49.5 µM

COc1ccc(CCNC(=O)NC(=O)c2ccc(Cl)cc2)cc1 [SW208401-1-A]
IC50 (H2009; [1]): ≥ 49.5 µM | IC50 (H2122; [2]): 0.15 µM | IC50 (H2122; [3]): 0.09 µM | IC50 (HCC44; [4]): 0.54 µM

O=C(NCCc1ccc(O)cc1)NC(=O)c1ccc(Oc2ccccc2)cc1 [SW208523-1-A]
IC50 (H2009; [1]): 0.02 µM | IC50 (H2122; [2]): 0.02 µM | IC50 (HCC44; [4]): 0.02 µM

CNC(=O)c1ccc(C(=O)NC(=O)NCCc2ccc(OC)cc2)cc1 [SW208413-1-A]
IC50 (H2009; [1]): 16.3 µM | IC50 (H2122; [2]): ≥ 49.5 µM | IC50 (HCC44; [4]): ≥ 49.5 µM

COc1ccc2nc(NC(=O)c3ccc(C(=O)c4ccccc4)cc3)sc2n1 [SW208233-1]
IC50 (H2009; [6]): 49.5 µM | IC50 (H2122; [7]): ≥ 49.5 µM | IC50 (HCC44; [8]): 49.5 µM

COc1ccc(CCNC(=O)N(C)C(=O)c2ccc(C(=O)c3ccccc3)cc2)cc1 [SW208566-1-A]
IC50 (H2009; [1]): 10.3 µM | IC50 (H2122; [2]): 6.15 µM | IC50 (HCC44; [4]): 7.76 µM

O=c1c(-c2ccccc2)coc2cc(OCc3cnn(-c4ccccc4)c3)ccc12 [SW 208631-1]
AC50 (H2009; [5]): 49.5 µM | AC50 (H2122): 0.28 µM | AC50 (HCC44): 49.5 µM

COc1ccc(CCNC(=O)NC(=O)c2ccc(OC)cc2)cc1 [SW208402-1-A]
IC50 (H2009; [1]): ≥ 49.5 µM | IC50 (H2122; [2]): 1.03 µM | IC50 (HCC44; [4]): ≥ 49.5 µM

O=C(NCCc1ccc(O)cc1)NC(=O)c1ccc(OCc2ccccc2)cc1 [SW208524-1-A]
IC50 (H2009; [1]): 0.01 µM | IC50 (H2122; [2]): 0.02 µM | IC50 (HCC44; [4]): 0.01 µM
